From patent publication US20260116845A1, “LIPIDS AND COMPOSITIONS THEREOF” (Kernal Biologics, Inc., priority 2023, published 2026)

Assays:
AML12 Cell Line = experiment: Transfection of AML12 Cell Line with FLuc mRNA LNPs (ONE-Glo EX luciferase signal); type: cell-based; conditions: 200 ng Fluc mRNA-LNP, 24 hours
Procedure: (§1) mRNA encapsulated lipid nanoparticles (mRNA LNPs) were formulated using microfluidic mixing with a PNI Ignite instrument. Briefly, lipids (ionizable: structural: helper: PEG) were dissolved in ethanol and mixed with and aqueous solution of mRNA. These mRNA-loaded dispersions were then neutralized via a buffer exchange with a pre-determined buffer overnight. Afterwards, formed LNPs were concentrated with Amicon filter centrifugation, filtered, concentration of mRNA determined through a ribogreen assay, and frozen at −80° C. until use.
(§2) Cell lines were grown to confluence in T75 flasks using complete media of DMEM-F12 for AML12 and DMEM for both B16F10 and MC38.K. Cells were plated in a white 96 flat-well plate (AML12=20,000 cells/well, B16F10 and MC38.K=5,000 cells/well) with their respected media. Lipid nanoparticles were first diluted to 50 μg/ml using Opti-MEM and pre-incubated with mouse serum for 30 minutes to give an LNP concentration of 8 μg/ml. Cell media was replaced with Opti-MEM and LNPs were added to cells (200 ng of mRNA-LNP), placed back in the incubator, and allowed to transfect for 24 hours. Afterwards, 100 μl of Promega's ONE-Glo™ EX Luciferase Assay System or Promega's CellTiter-Glo® Luminescent Cell Viability Assay was added and mixed in their respective wells, followed by recording luminescence signals on a Thermo Scientific Varioskan LUX multimode microplate reader. The results are shown in FIG. 1, FIG. 2, FIG. 3, FIG. 4, FIG. 5, FIG. 6, FIG. 10, FIG. 11, and FIG. 21.

MC38.K Cell Line = experiment: Transfection of MC38.K Cell Line with FLuc mRNA LNPs (ONE-Glo EX luciferase signal); type: cell-based; conditions: 200 ng Fluc mRNA-LNP, 24 hours; for Total Luciferin Signal (RLU) In Vitro - MC38.K: Table 4
Procedure: as §1, §2

Liver = experiment: Ex-vivo luminescence signal from liver after IV Fluc mRNA LNPs in CD1 mice (IVIS); conditions: tail vein 1.0 mg/kg Day 0 and Day 2, imaging 18 hours after second dose, Table 4
B16F10 Cell Line = experiment: Transfection of B16F10 Cell Line with FLuc mRNA LNPs (ONE-Glo EX luciferase signal); type: cell-based; conditions: 200 ng Fluc mRNA-LNP, 24 hours
Procedure: as §1, §2

SMILES	Total Luciferin Signal (RLU) In Vitro - AML12 (AML12 Cell Line; Table 4) [RLU]	Total Luciferin Signal (RLU) In Vitro - MC38.K (MC38.K Cell Line) [RLU]	Total Liver Tissue Luciferin Signal (Photons/s) Ex-vivo - CD1 (Liver) [Photons/s]	Total Luciferin Signal (RLU) In Vitro - B16F10 (B16F10 Cell Line; Table 4) [RLU]	Total Liver Tissue Luciferin Signal (Photons/s) In Vitro - CD1 (Liver) [Photons/s]	Total Luciferin Signal (RLU) In Vitro - AML12 (AML12 Cell Line; Table 5) [RLU]	Total Luciferin Signal (RLU) In Vitro-MC38 (MC38.K Cell Line; Table 5) [RLU]	Total Luciferin Signal (RLU) In Vitro - B16F10 (B16F10 Cell Line; Table 5) [RLU]
CCCCCCCCC(CCCCCCCCF)C(=O)OCCCCCCCN(CCO)CCCCCCCOC(=O)CCCCCCCCC(C)C (stereo not drawn) [Compound 60, 7-((7-((10-fluoro-2-octyldecanoyl)oxy)heptyl)(2-hydroxyethyl)amino)heptyl 10-methylundecanoate]	8.00E+05	5.21E+06	3.00E+09	3.17E+05	–	–	–	–
CCCCCCCCC(CCCCCCCCF)OC(=O)CCCCCN(CCCCO)CCCCC(C)C(=O)OCCCCCCCCCCC(C)C (stereo not drawn) [Compound 64, 11-methyldodecyl 6-((6-((1-fluoroheptadecan-9-yl)oxy)-6-oxohexyl)(4-hydroxybutyl)amino)-2-methylhexanoate]	1.02E+06	2.41E+07	4.39E+09	1.10E+06	–	–	–	–
CCCCCCCCC(CCCCCCCCF)OC(=O)CCCCCN(CCO)CCCCC(C)C(=O)OCCCCCCCCCCC(C)C (stereo not drawn) [Compound 65, 11-methyldodecyl 6-((6-((1-fluoroheptadecan-9-yl)oxy)-6-oxohexyl)(2-hydroxyethyl)amino)-2-methylhexanoate]	3.24E+05	3.81E+06	4.01E+09	3.78E+05	–	–	–	–
CCCCCCCCCOC(=O)CCCCCCCN(CCCO)CCCCCCCC(=O)OC(CCCCCCCC)CCCCCCCCF (stereo not drawn) [Compound 30]	8.06E+05	4.65E+05	1.53E+10	1.16E+05	–	–	–	–
CCCCCCCCCOC(=O)CCCCCN(CCO)CCCCCCCC(=O)OC(CCCCCCCC)CCCCCCCCF (stereo not drawn) [Compound 34]	1.56E+05	4.19E+05	1.89E+09	238754.8	–	–	–	–
CCCCCCCCC(CCCCCCCF)C(=O)OCCCCCCCN(CCO)CCCCCCCOC(=O)CCCCCCCC=C(C)C (stereo not drawn) [Compound 52, 7-((7-((2-(7-fluoroheptyl)decanoyl)oxy)heptyl)(2-hydroxyethyl)amino)heptyl 10-methylundec-9-enoate]	2.59E+05	4.31E+05	7.87E+09	2.53E+05	–	–	–	–
CCCCCCCCC(CCCCCCCF)OC(=O)CCCCCCCN(CCO)CCCCCC(=O)OC(CCCCCCCC)CCCCCCCC (stereo not drawn) [Compound 29]	8.52E+04	2.97E+05	7.57E+09	8.63E+05	–	–	–	–
CCCCCCCCC(CCCCCCCCF)OC(=O)CCCCCCCN(CCO)CCCCCCC(C)C(=O)OCCCCCCCCC(C)C (stereo not drawn) [Compound 66, 9-methyldecyl 8-((8-((1-fluoroheptadecan-9-yl)oxy)-8-oxooctyl)(2-hydroxyethyl)amino)-2-methyloctanoate]	1.16E+06	5.75E+06	9.44E+09	1.12E+06	–	–	–	–
CCCCCCCCCCCCN(CCO)CCCCCC(=O)OCCCCCCCCCCC [Compound 42]	2.36E+04	5.65E+04	–	1.91E+04	2.04E+06	–	–	–
CCCCCCCCCCCCN(CCO)CCCCCCCC(=O)OC(CCCCCCCC)CCCCCCCC [Compound 41]	3.63E+06	–	8.12E+09	2.52E+06	–	–	–	–
CCCCCCCCCCCOC(=O)CCCCCN(CCO)CCCCCCCC(=O)OC(CCCCCCCC)CCCCCC(C)C (stereo not drawn) [Compound 18]	2.99E+06	–	4.74E+09	2.65E+06	–	–	–	–
CCCCCCCC/C=C\CCCCCCC1CN(CCO)CC(CCCCCC(=O)OC(CCCCCCCC)CCCCCCC(C)C)O1 (stereo not drawn) [Compound 98, 2-methylheptadecan-9-yl (Z)-6-(6-(hexadec-7-en-1-yl)-4-(2-hydroxyethyl)morpholin-2-yl)hexanoate]	–	–	–	–	–	4.38E+04	7.95E+04	1.27E+05
CCCCCCCCCOC(=O)CCCCCCCN(CCO)CCCCCCCC(=O)OC(CCCCCCCF)CCCCCCCF [Compound 84, 1,15-difluoropentadecan-8-yl 8-((2-hydroxyethyl)(8-(nonyloxy)-8-oxooctyl)amino)octanoate]	5.18E+04	5.52E+05	–	8.32E+04	–	–	–	–
CCCCCCCCC(CCCCCCCC)C(=O)OCCCCCCCN(CCCCCOC(=O)CCCCCCCCC(C)C)CCOC(=O)CCCN(C)C [Compound 13]	1.44E+06	7.83E+05	–	2.12E+06	–	–	–	–
CCCCC(CCCCCCF)C(=O)OCCCCCCCCN(CCCCO)CCCCCCC(C)C(=O)OCCCCCCCCC(C)C (stereo not drawn) [Compound 88, 8-((4-hydroxybutyl)(7-methyl-8-((9-methyldecyl)oxy)-8-oxooctyl)amino)octyl 2-butyl-8-fluorooctanoate]	3.65E+05	1.24E+07	–	9.41E+05	–	–	–	–
CCCCCCCCCOC(=O)CCCCCCCN(CCCCO)CCCCCCCC(=O)OCC(CCCCCCCC)CCCCCCCCF (stereo not drawn) [Compound 77, 10-fluoro-2-octyldecyl 8-((4-hydroxybutyl)(8-(nonyloxy)-8-oxooctyl)amino)octanoate]	5.38E+06	3.24E+07	–	7.80E+06	–	–	–	–
CC(C)CCCCCCCCC(=O)OCCCCCCCN(CCO)CCCCCCCOC(=O)CCCCCCCCC(C)C [Compound 48]	3.31E+06	2.17E+06	–	4.45E+06	–	–	–	–
CCCCCCCCCOC(=O)CCCCCCCN(CCO)CCCCCCCCOC(=O)C(CCCC)CCCCCCF (stereo not drawn) [Compound 82, 8-((2-hydroxyethyl)(8-(nonyloxy)-8-oxooctyl)amino)octyl 2-butyl-8-fluorooctanoate]	1.48E+04	6.18E+04	–	1.70E+04	–	–	–	–
CCCCCCCCC(CCCCCCCC)OC(=O)CCCCCCCN(CCCCCCCC(=O)OCCCCCCCCF)CCOC(=O)CCCN(C)C [Compound 22]	1.24E+05	2.65E+06	–	5.04E+05	–	–	–	–
